Laboratory results as given in patent US5210193A, “Piperazine derivatives” (American Cyanamid Company, priority 1990, dated 1993).
≈ marks a conversion by molar mass, not a printed value. Like-named read-outs stand apart in the source and are kept apart here.

Experiments:
Assay in all cases: in vitro antibacterial MIC, agar plate dilution
Format in all cases: cell-based
[1] = test system: Pseudomonas aeruginosa CMC 83-20; conditions: Pseudomonas aeruginosa, CMC8320, 18 h, 35° C., read-out: MIC
In short: (§1)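 Agar plate dilution on Mueller-Hinton agar, inoculum about 10^4 CFU per spot applied with a Steers replicator. MIC (mcg/ml) is the lowest compound concentration preventing visible growth after 18 h at 35 °C.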

[2] = test system: Enterobacter aerogenes VGH 84-36; conditions: Klebsiella aerogenes, VGH8436, 18 hours, 35° C., read-out: MIC
In short: as §1

[3] = test system: Serratia marcescens F 0-35; conditions: Serratia marcescens, F035, 18 h, 35° C., read-out: MIC
In short: as §1

Klebsiella pneumoniae AD = conditions: Klebsiella pneumoniae, 18 h, 35° C., read-out: MIC
In short: as §1

[4] = test system: Pseudomonas aeruginosa K 84-16; conditions: Pseudomonas aeruginosa, K8416, 18 h, 35° C., read-out: MIC
In short: as §1

[5] = test system: Staphylococcus aureus VGH 84-46; conditions: Staphylococcus aureus, VGH8446, 18 h, 35° C., read-out: MIC
In short: as §1

[6] = test system: Staphylococcus aureus CMC 83-128; conditions: CMC83128, 18 hours, 35° C., read-out: MIC
In short: as §1

[7] = test system: Klebsiella oxytoca MOR 84-28; conditions: MOR8428, 18 hours, 35° C.
In short: as §1

[8] = test system: Staphylococcus aureus CMC 83-127; conditions: Staphylococcus aureus, CMC83127, 18 h, 35° C., read-out: MIC
In short: as §1

[9] = test system: Enterobacter cloacae MOR 84-30; conditions: 35° C.
In short: as §1

[10] = test system: Enterobacter cloacae VGH 84-37; conditions: Enterobacter cloacae, VGH8437, 18 h, 35° C., read-out: MIC
In short: as §1

Escherichia coli NAR 311 = conditions: NAR311, 18 hours, 35° C., read-out: MIC
In short: as §1

[11] = test system: Serratia marcescens K 84-18; conditions: Serratia marcescens, K8418, 18 h, 35° C., read-out: MIC
In short: as §1

[12] = test system: Streptococcus faecalis ATTC 29212; conditions: Enterococcus faecalis, ATTC29212, 18 hours, 35° C., read-out: MIC
In short: as §1

[13] = test system: Staphylococcus epidermidis CMC 83-135; conditions: CMC83135, 18 hours, 35° C., read-out: MIC
In short: as §1

[14] = test system: Acinetobacter calcoaceticus MOR 84-43; conditions: MOR8443, 18 hours, 35° C., read-out: MIC
In short: as §1

[15] = test system: Staphylococcus epidermidis IO 83-58; conditions: IO8358, 18 hours, 35° C., read-out: MIC
In short: as §1

[16] = test system: Morganella morganii VGH 84-11; conditions: VGH8411, 18 hours, 35° C., read-out: MIC
In short: as §1

[17] = test system: Escherichia coli MOR 84-20; conditions: Escherichia coli, MOR8420, 18 h, 35° C., read-out: MIC
In short: as §1

[18] = test system: Staphylococcus epidermidis VGH 84-40; conditions: VGH8440, 18 hours, 35° C., read-out: MIC
In short: as §1

[19] = test system: Morganella morganii MOR 84-45; conditions: Morganella morganii, MOR8445, 18 h, 35° C., read-out: MIC
In short: as §1

[20] = test system: Morganella morganii VHG 84-12; conditions: Morganella morganii, VHG8412, 18 h, Morganella morganii VHG 84-12 (VGH 84-12 for Example 131), 35° C., read-out: MIC
In short: as §1

[21] = test system: Escherichia coli CMC 84-16; conditions: Escherichia coli, CMC8416, 18 h, 35° C., read-out: MIC
In short: as §1

[22] = test system: Klebsiella pneumoniae MOR 84-4; conditions: Klebsiella pneumoniae, MOR844, 18 h, 35° C., read-out: MIC
In short: as §1

[23] = test system: Staphylococcus Spp saprophiticus VGH 84-50; conditions: 18 hours, 35° C., read-out: MIC
In short: as §1

[24] = test system: Pseudomonas aeruginosa VGH 84-4; conditions: 35° C.
In short: as §1

[25] = test system: Escherichia coli PRNT 311; conditions: PRNT311, 18 hours, 35° C., read-out: MIC
In short: as §1

[26] = test system: Streptococcus faecalis UCI 85-19; conditions: Enterococcus faecalis, UCI8519, 18 h, 35° C., read-out: MIC
In short: as §1

[27] = Enterobacter cloacae, MOR8430, 18 h, read-out: MIC
[28] = Pseudomonas aeruginosa, VGH844, 18 h, read-out: MIC

Structure (SMILES): O=C(O)c1cn(C2CC2)c2cc(N3CCNC(c4ccco4)C3)c(F)cc2c1=O (stereo not drawn) [Example 62, 1-Cyclopropyl-6-fluoro-7-[3-(2-furanvl)-1-piperazinyl]-1,4-dihydro-4-oxo-3-quinolinecarboxylic acid]
- MIC [1]: 8 µg/mL (≈ 20.1 µM)
- MIC [2]: 0.12 µg/mL (≈ 0.302 µM)
- MIC [3]: 0.06 µg/mL (≈ 0.151 µM)
- MIC (Klebsiella pneumoniae AD): 0.12 µg/mL (≈ 0.302 µM)
- MIC [4]: 8 µg/mL (≈ 20.1 µM)
- MIC [5]: 0.015 µg/mL (≈ 0.0377 µM)
- MIC [6]: 0.03 µg/mL (≈ 0.0755 µM)
- MIC [7]: 0.06 µg/mL (≈ 0.151 µM)
- MIC [8]: 0.008 µg/mL (≈ 0.0201 µM)
- MIC ([9]; 18 hours): 1 µg/mL (≈ 2.52 µM)
- MIC [10]: 0.03 µg/mL (≈ 0.0755 µM)
- MIC (Escherichia coli NAR 311): 0.5 µg/mL (≈ 1.26 µM)
- MIC [11]: 0.25 µg/mL (≈ 0.629 µM)
- MIC [12]: 0.25 µg/mL (≈ 0.629 µM)
- MIC [13]: 0.03 µg/mL (≈ 0.0755 µM)
- MIC [14]: 0.06 µg/mL (≈ 0.151 µM)
- MIC [15]: 0.015 µg/mL (≈ 0.0377 µM)
- MIC [16]: 0.06 µg/mL (≈ 0.151 µM)
- MIC [17]: 0.06 µg/mL (≈ 0.151 µM)
- MIC [18]: 0.03 µg/mL (≈ 0.0755 µM)
- MIC [19]: 0.12 µg/mL (≈ 0.302 µM)
- MIC [20]: 0.5 µg/mL (≈ 1.26 µM)
- MIC [21]: 0.03 µg/mL (≈ 0.0755 µM)
- MIC [22]: 0.12 µg/mL (≈ 0.302 µM)
- MIC [23]: 0.12 µg/mL (≈ 0.302 µM)
- MIC ([24]; 18 hours): 1 µg/mL (≈ 2.52 µM)
- MIC [25]: 0.06 µg/mL (≈ 0.151 µM)

Structure (SMILES): O=C(O)c1cn(C2CC2)c2cc(N3CCNC(c4ccoc4)C3)c(F)cc2c1=O (stereo not drawn) [Example 92]
- MIC [1]: 4 µg/mL (≈ 10.1 µM)
- MIC [4]: 4 µg/mL (≈ 10.1 µM)
- MIC [9, 27]: 1 µg/mL (≈ 2.52 µM)
- MIC [11]: 0.25 µg/mL (≈ 0.629 µM)
- MIC [26]: 1 µg/mL (≈ 2.52 µM)
- MIC [17]: 0.06 µg/mL (≈ 0.151 µM)
- MIC [19]: 0.12 µg/mL (≈ 0.302 µM)
- MIC [20]: 0.25 µg/mL (≈ 0.629 µM)
- MIC [24, 28]: 2 µg/mL (≈ 5.03 µM)

Structure (SMILES): CCn1cc(C(=O)O)c(=O)c2cc(F)c(N3CCNC(c4ccoc4)C3)cc21 (stereo not drawn) [Example 94, 1-Ethyl-6-fluoro-1,4-dihydro-4-oxo-7-[3-(3-furanyl)-1-piperazinyl]-3-quinolinecarboxylic acid]
- MIC [1]: 8 µg/mL (≈ 20.8 µM)
- MIC [4]: 16 µg/mL (≈ 41.5 µM)
- MIC [9, 27]: 4 µg/mL (≈ 10.4 µM)
- MIC [11]: 0.5 µg/mL (≈ 1.3 µM)
- MIC [26]: 4 µg/mL (≈ 10.4 µM)
- MIC [17]: 0.25 µg/mL (≈ 0.649 µM)
- MIC [19]: 0.12 µg/mL (≈ 0.311 µM)
- MIC [20]: 1 µg/mL (≈ 2.59 µM)
- MIC [24, 28]: 4 µg/mL (≈ 10.4 µM)

Structure (SMILES): CCn1cc(C(=O)O)c(=O)c2cc(F)c(N3CCN(C)C(c4ccn(C)n4)C3)cc21 (stereo not drawn) [Example 109, 1-Ethyl-6-fluoro-1,4-dihydro-7-[4-methyl-3-(1-methyl-1H-pyrazol-3-yl) -1-piperazinyl]-4-oxo-3-quinolinecarboxylic acid]
- MIC [1]: > 16 µg/mL
- MIC [4]: > 16 µg/mL
- MIC [9, 27]: > 16 µg/mL
- MIC [11]: 32 µg/mL (≈ 77.4 µM)
- MIC [26]: 16 µg/mL (≈ 38.7 µM)
- MIC [17]: > 16 µg/mL
- MIC [19]: > 16 µg/mL
- MIC [20]: > 16 µg/mL
- MIC [24, 28]: > 128 µg/mL

Structure (SMILES): CCn1cc(C(=O)O)c(=O)c2cc(F)c(N3CCN(C)C(c4ccnn4C)C3)cc21 (stereo not drawn) [Example 110, 1-Ethyl-6-fluoro-1,4-dihydro-7-[4-methyl-3-(1-methyl-1H-pyrazol-5-yl) -1-piperazinyl]-4-oxo-3-quinolinecarboxylic acid]
- MIC [1]: > 16 µg/mL
- MIC [4]: > 16 µg/mL
- MIC [9, 27]: > 16 µg/mL
- MIC [11]: 8 µg/mL (≈ 19.3 µM)
- MIC [26]: 8 µg/mL (≈ 19.3 µM)
- MIC [17]: 4 µg/mL (≈ 9.67 µM)
- MIC [19]: 8 µg/mL (≈ 19.3 µM)
- MIC [20]: > 16 µg/mL
- MIC [24, 28]: 128 µg/mL (≈ 310 µM)

Structure (SMILES): CN1CCN(c2c(F)c(F)c3c(=O)c(C(=O)O)cn(C4CC4)c3c2F)CC1 [Example 111, 1Cyclopropyl-5,6,8-trifluoro-1,4-dihydro-7-(4-methyl-1-piperazinyl) -4-oxo-3-quinolinecarboxylic acid]
- MIC [1]: 4 µg/mL (≈ 10.5 µM)
- MIC [4]: 4 µg/mL (≈ 10.5 µM)
- MIC [9, 27]: 0.06 µg/mL (≈ 0.157 µM)
- MIC [11]: 0.12 µg/mL (≈ 0.315 µM)
- MIC [26]: 4 µg/mL (≈ 10.5 µM)
- MIC [17]: 0.004 µg/mL (≈ 0.0105 µM)
- MIC [19]: 0.004 µg/mL (≈ 0.0105 µM)
- MIC [20]: 0.06 µg/mL (≈ 0.157 µM)
- MIC [24, 28]: 2 µg/mL (≈ 5.24 µM)

Structure (SMILES): O=C(O)c1cn(C2CC2)c2cc(N3CCNC(c4cc[nH]n4)C3)c(F)cc2c1=O (stereo not drawn) [Example 121, 1-Cyclopropyl-6-fluoro-1,4-dihydro-4-oxo-7-[3-(1H-pyrazol-3-yl)-1-piperazinyl]-3-quinolinecarboxylic acid]
- MIC [1]: 16 µg/mL (≈ 40.3 µM)
- MIC [4]: > 16 µg/mL
- MIC [9, 27]: 4 µg/mL (≈ 10.1 µM)
- MIC [11]: 0.25 µg/mL (≈ 0.629 µM)
- MIC [26]: 2 µg/mL (≈ 5.03 µM)
- MIC [17]: 0.25 µg/mL (≈ 0.629 µM)
- MIC [19]: 0.25 µg/mL (≈ 0.629 µM)
- MIC [20]: 4 µg/mL (≈ 10.1 µM)
- MIC [24, 28]: 8 µg/mL (≈ 20.1 µM)

Structure (SMILES): CCn1cc(C(=O)O)c(=O)c2cc(F)c(N3CCNC(c4cccnc4)C3)cc21 (stereo not drawn) [Example 122]
- MIC [1]: > 16 µg/mL
- MIC [4]: > 16 µg/mL
- MIC [9, 27]: 16 µg/mL (≈ 40.4 µM)
- MIC [11]: 1 µg/mL (≈ 2.52 µM)
- MIC [26]: 4 µg/mL (≈ 10.1 µM)
- MIC [17]: 1 µg/mL (≈ 2.52 µM)
- MIC [19]: 1 µg/mL (≈ 2.52 µM)
- MIC [20]: 8 µg/mL (≈ 20.2 µM)
- MIC [24, 28]: 32 µg/mL (≈ 80.7 µM)

Structure (SMILES): CCn1cc(C(=O)O)c(=O)c2cc(F)c(N3CCNC(c4ccncc4)C3)cc21 (stereo not drawn) [Example 123]
- MIC [1]: > 16 µg/mL
- MIC [4]: > 16 µg/mL
- MIC [9, 27]: > 16 µg/mL
- MIC [11]: 8 µg/mL (≈ 20.2 µM)
- MIC [26]: 8 µg/mL (≈ 20.2 µM)
- MIC [17]: 2 µg/mL (≈ 5.05 µM)
- MIC [19]: 2 µg/mL (≈ 5.05 µM)
- MIC [20]: 8 µg/mL (≈ 20.2 µM)
- MIC [24, 28]: 64 µg/mL (≈ 161 µM)

Structure (SMILES): CN1CCN(c2cc3c(cc2F)c(=O)c(C(=O)O)cn3C2CC2)CC1C1CC1 (stereo not drawn) [Example 125, 1-Cyclopropyl-7-(3-cyclopropyl-4-methyl-1-piperazinyl) -6-fluoro-1,4-dihydro-4-oxo-3-quinolinecarboxylic acid]
- MIC [1]: 16 µg/mL (≈ 41.5 µM)
- MIC [4]: 16 µg/mL (≈ 41.5 µM)
- MIC [9, 27]: 2 µg/mL (≈ 5.19 µM)
- MIC [11]: 0.5 µg/mL (≈ 1.3 µM)
- MIC [26]: 4 µg/mL (≈ 10.4 µM)
- MIC [17]: 0.25 µg/mL (≈ 0.649 µM)
- MIC [19]: 0.5 µg/mL (≈ 1.3 µM)
- MIC [20]: 1 µg/mL (≈ 2.59 µM)
- MIC [24, 28]: 8 µg/mL (≈ 20.8 µM)
